Here are results for twelve compounds from ChEMBL document CHEMBL5291721, “A preclinical secondary pharmacology resource illuminates target-adverse drug reaction associations of marketed drugs” (Nat Commun, 2023).

Where only a bound is given, the exact number is not on record here.

The AC50 is the midpoint of the concentration-response curve, whichever way the signal moves.

Test [1] deals with T1, 5-hydroxytryptamine receptor 1A (Homo sapiens, UniProt P08908).
T1 sequence (P08908 whole entry): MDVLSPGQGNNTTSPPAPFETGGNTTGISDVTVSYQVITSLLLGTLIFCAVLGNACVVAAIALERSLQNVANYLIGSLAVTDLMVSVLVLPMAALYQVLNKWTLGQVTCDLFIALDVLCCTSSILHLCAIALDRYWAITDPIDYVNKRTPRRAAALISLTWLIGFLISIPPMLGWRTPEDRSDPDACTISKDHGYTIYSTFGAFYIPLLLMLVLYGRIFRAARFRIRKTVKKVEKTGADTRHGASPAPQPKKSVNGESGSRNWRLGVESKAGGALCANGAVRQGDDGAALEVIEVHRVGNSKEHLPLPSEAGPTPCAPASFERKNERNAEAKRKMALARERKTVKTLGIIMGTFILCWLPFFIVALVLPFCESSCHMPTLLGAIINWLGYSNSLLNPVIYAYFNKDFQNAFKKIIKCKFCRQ
The test is classed as functional, cell-based.

The target of test [2] is T2, Neuropeptide Y receptor type 1 (Homo sapiens, UniProt P25929).
T2 sequence (P25929 whole entry): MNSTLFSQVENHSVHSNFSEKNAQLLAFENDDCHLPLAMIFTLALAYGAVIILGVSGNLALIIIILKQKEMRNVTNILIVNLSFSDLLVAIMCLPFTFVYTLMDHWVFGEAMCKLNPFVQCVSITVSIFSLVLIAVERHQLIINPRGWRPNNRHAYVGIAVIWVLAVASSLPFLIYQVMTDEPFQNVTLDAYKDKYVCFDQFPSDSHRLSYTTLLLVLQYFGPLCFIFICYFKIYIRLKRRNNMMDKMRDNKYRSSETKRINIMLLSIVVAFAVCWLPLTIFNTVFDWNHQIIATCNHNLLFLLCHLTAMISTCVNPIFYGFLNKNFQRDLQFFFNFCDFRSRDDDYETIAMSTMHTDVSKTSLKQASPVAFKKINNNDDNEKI

In test [3] the target is T3, 5-hydroxytryptamine receptor 3A (Homo sapiens, UniProt P46098).
T3 sequence (P46098 whole entry): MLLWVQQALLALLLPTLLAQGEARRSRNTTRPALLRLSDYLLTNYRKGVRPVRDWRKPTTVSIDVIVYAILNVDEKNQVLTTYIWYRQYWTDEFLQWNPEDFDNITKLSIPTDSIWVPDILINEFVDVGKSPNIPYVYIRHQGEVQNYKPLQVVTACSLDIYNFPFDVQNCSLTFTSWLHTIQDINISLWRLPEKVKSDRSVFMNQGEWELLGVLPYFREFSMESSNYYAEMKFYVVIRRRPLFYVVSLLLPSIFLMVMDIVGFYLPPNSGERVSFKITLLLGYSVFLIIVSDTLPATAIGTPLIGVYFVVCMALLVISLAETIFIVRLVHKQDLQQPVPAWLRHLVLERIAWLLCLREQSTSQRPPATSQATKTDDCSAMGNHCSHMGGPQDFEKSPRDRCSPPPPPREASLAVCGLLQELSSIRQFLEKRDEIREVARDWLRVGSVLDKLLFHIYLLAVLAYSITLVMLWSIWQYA
It counts as functional.

The target in test [4] is T4, Muscarinic acetylcholine receptor M2 (Homo sapiens, UniProt P08172).
T4 sequence (P08172 whole entry): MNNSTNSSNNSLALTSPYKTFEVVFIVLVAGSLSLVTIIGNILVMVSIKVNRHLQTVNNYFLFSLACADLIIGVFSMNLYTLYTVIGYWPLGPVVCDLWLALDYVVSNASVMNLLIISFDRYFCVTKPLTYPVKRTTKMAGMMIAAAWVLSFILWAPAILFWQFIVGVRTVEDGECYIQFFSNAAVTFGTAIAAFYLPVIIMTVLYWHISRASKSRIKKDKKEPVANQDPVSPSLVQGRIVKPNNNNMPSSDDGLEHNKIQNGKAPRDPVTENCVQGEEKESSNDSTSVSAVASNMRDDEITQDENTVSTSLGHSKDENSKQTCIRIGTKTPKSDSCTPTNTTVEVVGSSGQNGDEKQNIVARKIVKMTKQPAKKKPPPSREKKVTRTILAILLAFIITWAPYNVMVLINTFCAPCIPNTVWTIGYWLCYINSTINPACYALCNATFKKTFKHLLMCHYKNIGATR
The test is classed as functional, cell-based.

Test [5] has as its target T5, Prostaglandin G/H synthase 1 (Rattus norvegicus, UniProt Q63921).
T5 sequence (Q63921 whole entry): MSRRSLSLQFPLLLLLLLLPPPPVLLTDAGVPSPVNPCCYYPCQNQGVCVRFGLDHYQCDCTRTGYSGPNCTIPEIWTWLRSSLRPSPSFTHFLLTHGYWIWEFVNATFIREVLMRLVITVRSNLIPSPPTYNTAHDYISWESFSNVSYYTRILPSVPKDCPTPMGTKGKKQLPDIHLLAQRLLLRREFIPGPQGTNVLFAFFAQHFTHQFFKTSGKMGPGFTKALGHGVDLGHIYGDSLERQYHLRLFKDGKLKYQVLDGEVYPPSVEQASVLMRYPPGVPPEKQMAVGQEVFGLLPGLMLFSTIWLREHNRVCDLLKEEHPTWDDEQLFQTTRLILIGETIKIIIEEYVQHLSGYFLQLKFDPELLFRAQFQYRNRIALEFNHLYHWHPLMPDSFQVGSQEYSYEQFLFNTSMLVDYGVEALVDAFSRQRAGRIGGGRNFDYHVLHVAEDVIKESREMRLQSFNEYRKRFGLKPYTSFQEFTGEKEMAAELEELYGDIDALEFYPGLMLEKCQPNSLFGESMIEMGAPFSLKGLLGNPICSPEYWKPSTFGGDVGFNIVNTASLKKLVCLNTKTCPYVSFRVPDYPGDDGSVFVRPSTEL
It counts as functional.

The target of test [6] is Voltage-dependent L-type calcium channel subunit alpha-1C (Rattus norvegicus, UniProt P22002). It counts as functional.
Sequence of Voltage-dependent L-type calcium channel subunit alpha-1C (P22002 whole entry): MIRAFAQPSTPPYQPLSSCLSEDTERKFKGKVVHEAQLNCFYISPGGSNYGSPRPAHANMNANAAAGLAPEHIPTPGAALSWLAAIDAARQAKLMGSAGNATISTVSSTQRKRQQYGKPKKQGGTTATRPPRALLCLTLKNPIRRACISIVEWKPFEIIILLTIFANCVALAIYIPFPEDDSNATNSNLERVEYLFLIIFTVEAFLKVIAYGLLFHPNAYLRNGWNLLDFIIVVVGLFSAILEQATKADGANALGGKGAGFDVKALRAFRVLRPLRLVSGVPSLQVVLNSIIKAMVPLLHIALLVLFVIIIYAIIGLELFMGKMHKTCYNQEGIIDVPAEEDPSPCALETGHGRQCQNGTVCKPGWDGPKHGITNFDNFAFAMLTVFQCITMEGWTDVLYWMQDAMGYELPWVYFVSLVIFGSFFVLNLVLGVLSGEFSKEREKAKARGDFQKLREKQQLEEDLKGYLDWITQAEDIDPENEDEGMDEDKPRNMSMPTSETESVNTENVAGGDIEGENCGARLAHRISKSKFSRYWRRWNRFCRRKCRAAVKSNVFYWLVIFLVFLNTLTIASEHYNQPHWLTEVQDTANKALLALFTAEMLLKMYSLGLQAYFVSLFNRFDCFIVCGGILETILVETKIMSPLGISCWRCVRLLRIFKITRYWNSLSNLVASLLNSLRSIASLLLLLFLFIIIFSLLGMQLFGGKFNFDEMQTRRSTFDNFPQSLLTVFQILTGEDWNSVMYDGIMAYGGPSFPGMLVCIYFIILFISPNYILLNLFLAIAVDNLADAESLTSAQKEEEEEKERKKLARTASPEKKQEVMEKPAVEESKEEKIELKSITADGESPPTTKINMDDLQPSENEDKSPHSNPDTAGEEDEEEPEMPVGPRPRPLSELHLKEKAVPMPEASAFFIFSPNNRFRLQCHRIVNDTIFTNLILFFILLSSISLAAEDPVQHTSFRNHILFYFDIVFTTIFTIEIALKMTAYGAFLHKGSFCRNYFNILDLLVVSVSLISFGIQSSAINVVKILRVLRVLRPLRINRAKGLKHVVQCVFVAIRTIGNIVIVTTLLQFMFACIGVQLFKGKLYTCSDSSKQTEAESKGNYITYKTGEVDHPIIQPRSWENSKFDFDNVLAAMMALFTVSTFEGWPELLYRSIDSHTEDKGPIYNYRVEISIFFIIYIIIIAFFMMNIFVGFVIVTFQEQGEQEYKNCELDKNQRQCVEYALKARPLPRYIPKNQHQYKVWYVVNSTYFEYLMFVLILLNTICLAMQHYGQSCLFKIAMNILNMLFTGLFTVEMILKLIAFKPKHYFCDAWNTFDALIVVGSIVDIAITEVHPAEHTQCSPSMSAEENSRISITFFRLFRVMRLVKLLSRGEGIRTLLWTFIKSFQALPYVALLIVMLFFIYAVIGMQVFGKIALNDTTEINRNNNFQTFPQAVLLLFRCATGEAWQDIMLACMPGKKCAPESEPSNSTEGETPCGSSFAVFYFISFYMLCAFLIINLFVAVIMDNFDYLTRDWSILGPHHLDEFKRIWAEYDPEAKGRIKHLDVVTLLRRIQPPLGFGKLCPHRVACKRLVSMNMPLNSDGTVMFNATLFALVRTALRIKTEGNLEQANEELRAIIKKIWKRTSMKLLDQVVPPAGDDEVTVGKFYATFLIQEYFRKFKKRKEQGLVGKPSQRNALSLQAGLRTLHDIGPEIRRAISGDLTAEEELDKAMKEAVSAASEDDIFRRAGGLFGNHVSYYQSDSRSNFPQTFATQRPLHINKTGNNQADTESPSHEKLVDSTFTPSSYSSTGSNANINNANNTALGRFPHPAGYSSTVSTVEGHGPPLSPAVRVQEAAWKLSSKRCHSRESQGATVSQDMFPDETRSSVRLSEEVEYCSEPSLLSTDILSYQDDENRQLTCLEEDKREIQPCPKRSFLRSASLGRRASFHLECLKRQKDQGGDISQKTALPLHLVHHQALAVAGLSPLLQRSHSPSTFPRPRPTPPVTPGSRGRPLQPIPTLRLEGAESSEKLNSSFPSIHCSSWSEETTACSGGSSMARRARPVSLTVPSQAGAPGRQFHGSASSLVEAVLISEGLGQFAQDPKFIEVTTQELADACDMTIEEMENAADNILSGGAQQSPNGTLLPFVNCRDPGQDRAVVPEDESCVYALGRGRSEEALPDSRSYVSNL
Test [7] addresses 5-hydroxytryptamine receptor 2B (Homo sapiens, UniProt P41595). It counts as functional, cell-based.
The target of test [8] is Kappa-type opioid receptor (Homo sapiens, UniProt P41145).
Sequence of Kappa-type opioid receptor (P41145 whole entry): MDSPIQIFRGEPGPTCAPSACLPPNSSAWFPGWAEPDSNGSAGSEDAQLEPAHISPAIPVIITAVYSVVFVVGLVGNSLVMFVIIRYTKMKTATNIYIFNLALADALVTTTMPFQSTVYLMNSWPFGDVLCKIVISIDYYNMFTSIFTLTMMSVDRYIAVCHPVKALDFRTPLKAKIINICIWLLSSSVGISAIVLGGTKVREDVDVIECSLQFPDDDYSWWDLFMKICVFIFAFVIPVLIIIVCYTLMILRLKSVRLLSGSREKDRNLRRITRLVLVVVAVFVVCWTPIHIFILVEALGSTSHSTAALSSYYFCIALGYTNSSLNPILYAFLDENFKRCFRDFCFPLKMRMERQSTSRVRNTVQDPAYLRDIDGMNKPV
Test [9] addresses cGMP-inhibited 3',5'-cyclic phosphodiesterase 3A (Homo sapiens, UniProt Q14432). It counts as functional.
The target of test [10] is Sodium-dependent noradrenaline transporter (Homo sapiens, UniProt P23975).
Sequence of Sodium-dependent noradrenaline transporter (P23975 whole entry): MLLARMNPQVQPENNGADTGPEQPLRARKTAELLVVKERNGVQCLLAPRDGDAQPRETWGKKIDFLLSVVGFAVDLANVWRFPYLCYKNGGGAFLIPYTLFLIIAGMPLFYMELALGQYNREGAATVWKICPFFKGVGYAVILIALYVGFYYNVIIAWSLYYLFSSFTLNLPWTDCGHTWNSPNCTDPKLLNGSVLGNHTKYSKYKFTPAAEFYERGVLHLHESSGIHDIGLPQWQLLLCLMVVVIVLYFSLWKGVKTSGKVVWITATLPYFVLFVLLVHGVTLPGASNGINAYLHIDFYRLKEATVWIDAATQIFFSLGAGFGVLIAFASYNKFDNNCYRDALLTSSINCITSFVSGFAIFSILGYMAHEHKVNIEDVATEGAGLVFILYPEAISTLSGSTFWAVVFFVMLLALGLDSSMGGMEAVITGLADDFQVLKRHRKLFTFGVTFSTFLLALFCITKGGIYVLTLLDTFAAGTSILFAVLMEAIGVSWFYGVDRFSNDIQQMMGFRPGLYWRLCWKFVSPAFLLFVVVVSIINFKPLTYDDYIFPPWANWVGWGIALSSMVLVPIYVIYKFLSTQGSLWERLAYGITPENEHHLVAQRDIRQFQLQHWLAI
Note: assay procedure not described here.

Sequence of 5-hydroxytryptamine receptor 2B (P41595 whole entry): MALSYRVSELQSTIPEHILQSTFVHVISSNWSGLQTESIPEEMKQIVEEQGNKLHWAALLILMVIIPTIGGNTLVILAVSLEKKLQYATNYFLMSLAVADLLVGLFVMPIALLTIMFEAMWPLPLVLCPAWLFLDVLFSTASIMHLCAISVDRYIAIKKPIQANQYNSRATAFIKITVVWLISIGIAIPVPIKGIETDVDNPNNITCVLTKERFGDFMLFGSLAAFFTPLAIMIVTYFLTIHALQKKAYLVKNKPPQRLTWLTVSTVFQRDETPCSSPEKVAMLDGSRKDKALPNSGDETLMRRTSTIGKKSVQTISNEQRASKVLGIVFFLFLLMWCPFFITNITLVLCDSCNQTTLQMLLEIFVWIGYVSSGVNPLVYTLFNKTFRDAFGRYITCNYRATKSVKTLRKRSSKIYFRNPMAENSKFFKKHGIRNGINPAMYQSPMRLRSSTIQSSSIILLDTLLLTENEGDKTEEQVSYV
Sequence of cGMP-inhibited 3',5'-cyclic phosphodiesterase 3A (Q14432 whole entry): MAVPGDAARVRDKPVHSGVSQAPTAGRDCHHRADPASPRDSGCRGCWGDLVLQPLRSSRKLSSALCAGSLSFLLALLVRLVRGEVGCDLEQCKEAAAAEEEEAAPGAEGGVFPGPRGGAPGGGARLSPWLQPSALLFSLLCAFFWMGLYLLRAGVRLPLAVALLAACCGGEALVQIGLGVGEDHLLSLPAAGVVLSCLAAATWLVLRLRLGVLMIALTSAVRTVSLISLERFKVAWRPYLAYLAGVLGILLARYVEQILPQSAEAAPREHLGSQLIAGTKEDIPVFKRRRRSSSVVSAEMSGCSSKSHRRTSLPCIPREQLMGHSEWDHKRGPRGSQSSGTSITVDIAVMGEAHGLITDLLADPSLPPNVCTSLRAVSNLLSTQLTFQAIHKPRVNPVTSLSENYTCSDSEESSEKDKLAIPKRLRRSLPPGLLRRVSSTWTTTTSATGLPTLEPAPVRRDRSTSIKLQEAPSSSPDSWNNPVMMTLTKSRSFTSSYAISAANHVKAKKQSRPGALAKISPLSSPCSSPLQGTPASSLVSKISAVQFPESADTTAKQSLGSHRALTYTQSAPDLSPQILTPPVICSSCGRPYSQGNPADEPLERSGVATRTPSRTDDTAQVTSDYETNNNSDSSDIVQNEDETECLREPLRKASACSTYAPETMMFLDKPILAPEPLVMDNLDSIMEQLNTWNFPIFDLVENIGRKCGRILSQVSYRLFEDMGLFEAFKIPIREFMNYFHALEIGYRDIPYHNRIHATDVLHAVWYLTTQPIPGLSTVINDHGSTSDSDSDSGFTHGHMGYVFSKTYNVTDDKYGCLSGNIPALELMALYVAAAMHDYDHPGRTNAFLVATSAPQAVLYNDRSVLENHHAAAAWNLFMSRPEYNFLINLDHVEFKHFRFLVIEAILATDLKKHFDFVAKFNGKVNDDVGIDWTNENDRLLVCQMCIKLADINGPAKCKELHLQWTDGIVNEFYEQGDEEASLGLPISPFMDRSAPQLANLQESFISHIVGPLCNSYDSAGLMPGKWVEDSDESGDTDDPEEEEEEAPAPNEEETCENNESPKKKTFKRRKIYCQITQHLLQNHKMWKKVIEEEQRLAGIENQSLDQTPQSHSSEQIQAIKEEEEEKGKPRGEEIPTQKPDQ

As to `Nc1nc(F)nc2c1ncn2[C@@H]1O[C@H](COP(=O)(O)O)[C@@H](O)[C@@H]1O` [FLUDARABINE PHOSPHATE], the AC50 in [1], in [2], in [3], in test [4], in test [5] and in [6] was greater than 30 µM in each case. The half-maximal activity concentration (AC50) in [7], in test [8], in test [9] and in [10] was greater than 30 µM each time.

On to `O=C(O)c1ccccc1Nc1cccc(C(F)(F)F)c1` [FLUFENAMIC ACID], for which the half-maximal activity concentration (AC50) in [1] was 15 µM; in test [2] it was greater than 30 µM; in [3], greater than 30 µM; in [4], greater than 10 µM; in test [5], 18.3 µM; in [6], greater than 10 µM. For the same compound, the AC50 in test [7], in test [8], in [9] and in [10] was greater than 30 µM in each case.

For the compound `Nc1ccn([C@@H]2O[C@H](CO)[C@@H](O)C2(F)F)c(=O)n1` [GEMCITABINE], the AC50 in test [1] was greater than 10 µM; in test [2], greater than 30 µM; in [3], greater than 30 µM; in test [4] it was greater than 10 µM; in test [5] it was greater than 30 µM; in test [6], greater than 10 µM. The half-maximal activity concentration (AC50) is greater than 10 µM in test [7], greater than 10 µM in test [8], 11 µM in test [9] and greater than 30 µM in [10].

On to `C#C[C@]1(O)CC[C@H]2[C@@H]3CCC4=CC(=O)CCC4=C3C=C[C@@]21CC` [GESTRINONE], for which the AC50 in [1], in [2], in [3], in test [4], in test [5] and in [6] was greater than 30 µM in each case. Further, the concentration at half-maximal activity (AC50) in test [7] is 24 µM; in test [8], 23 µM; in test [9], 2.9 µM; in test [10] it was greater than 30 µM.

Regarding `CCCCCCOC(=O)CCC(=O)CN` [HEXAMINOLEVULINATE], the AC50 in [1] was greater than 30 µM; in test [2], greater than 30 µM; in test [3], greater than 30 µM; in [4] it was greater than 30 µM; in test [5] it was 9.4 µM; in test [6], greater than 30 µM. The AC50 in [7], in [8], in [9] and in test [10] was greater than 30 µM throughout.

As to `COC1=C(OC)C(=O)C(CCCCCCCCCCO)=C(C)C1=O` [IDEBENONE], the half-maximal activity concentration (AC50) in test [1] was greater than 10 µM; in test [2], greater than 30 µM; in [3], greater than 10 µM; in [4] it was greater than 10 µM; in [5], greater than 30 µM; in test [6], greater than 10 µM. Also, the concentration at half-maximal activity (AC50) in [7] is greater than 10 µM; in [8], greater than 10 µM; in test [9] it was 6.4 µM; in test [10], greater than 10 µM.

Consider `Nc1nc2c(c(=O)[nH]1)N(C=O)C(CNc1ccc(C(=O)N[C@@H](CCC(=O)O)C(=O)O)cc1)CN2` (stereo not given in full) [LEUCOVORIN], for which the AC50 in test [1], in [2], in [3], in test [4], in test [5] and in [6] was greater than 30 µM in each case. Besides, the AC50 in [7], in [8], in test [9] and in test [10] was greater than 30 µM throughout.

As to `CC(=O)Nc1c(I)c(C(=O)N[C@H]2C(O)O[C@H](CO)[C@@H](O)[C@@H]2O)c(I)c(N(C)C(C)=O)c1I` (stereo not given in full) [METRIZAMIDE], the concentration at half-maximal activity (AC50) in test [1] was greater than 10 µM; in test [2] it was greater than 10 µM; in test [3], greater than 30 µM; in test [4] it was greater than 10 µM; in test [5] it was greater than 10 µM; in [6], greater than 10 µM. In addition, the concentration at half-maximal activity (AC50) is greater than 10 µM in [7], greater than 10 µM in [8], greater than 30 µM in test [9] and greater than 10 µM in test [10].

Take `O=C1CN=C(c2ccccc2)c2cc(Cl)ccc2N1` [NORDAZEPAM]: the AC50 was greater than 10 µM in test [1]; greater than 30 µM in test [2]; greater than 10 µM in test [3]; greater than 10 µM in [4]; greater than 30 µM in test [5]; greater than 10 µM in [6]. Moreover, the AC50 in [7] was greater than 10 µM; in test [8] it was 9.97 µM; in [9], greater than 30 µM; in [10] it was greater than 10 µM.

Turning to `CC(CCc1ccccc1)NC(C)C(O)c1ccc(O)cc1` (stereo not given) [NYLIDRIN], the AC50 in test [1] is 12 µM; in test [2] it was greater than 30 µM; in [3], greater than 10 µM; in test [4] it was greater than 10 µM; in [5], greater than 30 µM; in test [6], greater than 10 µM. The AC50 in test [7] was 6.9 µM; in test [8], 4.98 µM; in test [9], greater than 30 µM; in test [10], 11 µM.

`O=C1Nc2ccc(Cl)cc2C(c2ccccc2)=NC1O` (stereo not given) [OXAZEPAM]: the AC50 was greater than 10 µM in test [1]; greater than 30 µM in test [2]; greater than 10 µM in test [3]; greater than 10 µM in test [4]; greater than 30 µM in test [5]; greater than 10 µM in test [6]. Moreover, the concentration at half-maximal activity (AC50) in test [7] was greater than 10 µM; in test [8], greater than 10 µM; in test [9] it was greater than 30 µM; in test [10], greater than 10 µM.

Turning to `CC(=O)O[C@H]1C[C@@H]2CC[C@@H]3[C@H](CC[C@@]4(C)[C@H]3C[C@H]([N+]3(C)CCCCC3)[C@@H]4OC(C)=O)[C@@]2(C)C[C@@H]1[N+]1(C)CCCCC1` [PANCURONIUM], the AC50 in [1] is greater than 10 µM; in test [2] it was greater than 10 µM; in [3], greater than 30 µM; in test [4] it was greater than 10 µM; in test [5], greater than 10 µM; in [6] it was greater than 10 µM. Further, the AC50 in test [7] was greater than 10 µM; in [8], greater than 10 µM; in test [9] it was greater than 30 µM; in test [10], greater than 10 µM.
